In PubChem BioAssay AID1919005 (Molecular Pharmacology Branch, DTP, NCI, 2023):

System: 855422-203-R-J1-PDC complex spheroid growth
Test: Anticancer human tumor 855422-203-R-J1-PDC patient-derived bladder carcinoma cell line growth inhibition [AhR]
Details: for IC50: curve of first compound; for viability, T/C: stronger effect = lower value
In short: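 Spheroids combined tumor cells with HUVEC endothelial cells and human MSCs as stroma. AhR antagonists were paired with standard or investigational drugs, each dosed in half-log steps down from near clinical Cmax, or from 10 microM where Cmax was unknown.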

[1] = second compound 0.1 µM, first compound 0.0316 µM
[2] = second compound 0.1 µM, first compound 0.1 µM
[3] = second compound 0.1 µM, first compound 0.316 µM
[4] = second compound 0.1 µM, first compound 1 µM
[5] = second compound 0.1 µM, first compound 3.16 µM
[6] = second compound 0.1 µM, first compound 10 µM
[7] = second compound 0.316 µM, first compound 0.0316 µM
[8] = second compound 0.316 µM, first compound 0.1 µM
[9] = second compound 0.316 µM, first compound 0.316 µM
[10] = second compound 0.316 µM, first compound 1 µM
[11] = second compound 0.316 µM, first compound 3.16 µM
[12] = second compound 0.316 µM, first compound 10 µM
[13] = second compound 1 µM, first compound 0.0316 µM
[14] = second compound 1 µM, first compound 0.1 µM
[15] = second compound 1 µM, first compound 0.316 µM
[16] = second compound 1 µM, first compound 1 µM
[17] = second compound 1 µM, first compound 3.16 µM
[18] = second compound 1 µM, first compound 10 µM
[19] = second compound 3.16 µM, first compound 0.0316 µM
[20] = second compound 3.16 µM, first compound 0.1 µM
[21] = second compound 3.16 µM, first compound 0.316 µM
[22] = second compound 3.16 µM, first compound 1 µM
[23] = second compound 3.16 µM, first compound 3.16 µM
[24] = second compound 3.16 µM, first compound 10 µM
[25] = second compound 10 µM, first compound 0.0316 µM
[26] = second compound 10 µM, first compound 0.1 µM
[27] = second compound 10 µM, first compound 0.316 µM
[28] = second compound 10 µM, first compound 1 µM
[29] = second compound 10 µM, first compound 3.16 µM
[30] = second compound 10 µM, first compound 10 µM
[31] = second compound 0.1 µM, first compound 0.00949 µM
[32] = second compound 0.1 µM, first compound 0.03 µM
[33] = second compound 0.1 µM, first compound 0.0949 µM
[34] = second compound 0.1 µM, first compound 0.3 µM
[35] = second compound 0.1 µM, first compound 0.949 µM
[36] = second compound 0.1 µM, first compound 3 µM
[37] = second compound 0.316 µM, first compound 0.00949 µM
[38] = second compound 0.316 µM, first compound 0.03 µM
[39] = second compound 0.316 µM, first compound 0.0949 µM
[40] = second compound 0.316 µM, first compound 0.3 µM
[41] = second compound 0.316 µM, first compound 0.949 µM
[42] = second compound 0.316 µM, first compound 3 µM
[43] = second compound 1 µM, first compound 0.00949 µM
[44] = second compound 1 µM, first compound 0.03 µM
[45] = second compound 1 µM, first compound 0.0949 µM
[46] = second compound 1 µM, first compound 0.3 µM
[47] = second compound 1 µM, first compound 0.949 µM
[48] = second compound 1 µM, first compound 3 µM
[49] = second compound 3.16 µM, first compound 0.00949 µM
[50] = second compound 3.16 µM, first compound 0.03 µM
[51] = second compound 3.16 µM, first compound 0.0949 µM
[52] = second compound 3.16 µM, first compound 0.3 µM
[53] = second compound 3.16 µM, first compound 0.949 µM
[54] = second compound 3.16 µM, first compound 3 µM
[55] = second compound 10 µM, first compound 0.00949 µM
[56] = second compound 10 µM, first compound 0.03 µM
[57] = second compound 10 µM, first compound 0.0949 µM
[58] = second compound 10 µM, first compound 0.3 µM
[59] = second compound 10 µM, first compound 0.949 µM
[60] = second compound 10 µM, first compound 3 µM
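Note: spheroids exposed to agents for seven days before readout.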
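Throughout, for viability, T/C: percent of DMSO vehicle control luminescence viability.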

`CC1(C)CCC(CN2CCN(c3ccc(C(=O)NS(=O)(=O)c4ccc(NCC5CCOCC5)c([N+](=O)[O-])c4)c(Oc4cnc5[nH]ccc5c4)c3)CC2)=C(c2ccc(Cl)cc2)C1` + Cc1ccccc1N=Nc1ccc(NC(=O)c2ccnn2C)c(C)c1 showed an IC50 (second compound 0.1 µM) of 6.82 µM, an IC50 (second compound 0.316 µM) of 6.89 µM and an IC50 (second compound 1 µM) of 7.01 µM. It also gave an IC50 (second compound 3.16 µM) of 6.66 µM, an IC50 (second compound 10 µM) of 4.83 µM and a viability, T/C [1] of 102%. The viability, T/C [2] was 114%, the viability, T/C [3] was 101% and the viability, T/C [4] was 107%. It also gave a viability, T/C [5] of 110%, a viability, T/C [6] of 21.8% and a viability, T/C [7] of 105%. For the same compound, the viability, T/C [8] was 106%, the viability, T/C [9] was 102% and the viability, T/C [10] was 114%. The viability, T/C [11] was 106%, the viability, T/C [12] was 23.1% and the viability, T/C [13] was 108%. The viability, T/C [14] was 116%, the viability, T/C [15] was 102% and the viability, T/C [16] was 106%. For the same compound, the viability, T/C [17] was 116%, the viability, T/C [18] was 23.4% and the viability, T/C [19] was 95.8%. It also gave a viability, T/C [20] of 102%, a viability, T/C [21] of 105% and a viability, T/C [22] of 105%. The viability, T/C [23] was 98.2%, the viability, T/C [24] was 23.6% and the viability, T/C [25] was 94.1%. It also gave a viability, T/C [26] of 83.5%, a viability, T/C [27] of 89% and a viability, T/C [28] of 85.6%. The viability, T/C [29] was 62.9% and the viability, T/C [30] was 27.7%.

`CC1COCCN1c1cc(C2(S(C)(=N)=O)CC2)nc(-c2ccnc3[nH]ccc23)n1` (stereo not given) + Cc1ccccc1N=Nc1ccc(NC(=O)c2ccnn2C)c(C)c1 was tested, and the IC50 (second compound 0.1 µM) was greater than 10 µM, the IC50 (second compound 0.316 µM) was greater than 10 µM and the IC50 (second compound 1 µM) was greater than 10 µM. For the same compound, the IC50 (second compound 3.16 µM) was greater than 10 µM, the IC50 (second compound 10 µM) was 7.86 µM and the viability, T/C [1] was 95.5%. It also gave a viability, T/C [2] of 95.4%, a viability, T/C [3] of 97.4% and a viability, T/C [4] of 99.4%. It also gave a viability, T/C [5] of 110%, a viability, T/C [6] of 54.9% and a viability, T/C [7] of 105%. It also gave a viability, T/C [8] of 99.2%, a viability, T/C [9] of 104% and a viability, T/C [10] of 101%. The viability, T/C [11] was 121%, the viability, T/C [12] was 55.4% and the viability, T/C [13] was 102%. The viability, T/C [14] was 98.4%, the viability, T/C [15] was 95% and the viability, T/C [16] was 106%. It also gave a viability, T/C [17] of 125%, a viability, T/C [18] of 60% and a viability, T/C [19] of 91%. For the same compound, the viability, T/C [20] was 91.4%, the viability, T/C [21] was 92.9% and the viability, T/C [22] was 102%. It also gave a viability, T/C [23] of 109%, a viability, T/C [24] of 50.8% and a viability, T/C [25] of 83.5%. The viability, T/C [26] was 79%, the viability, T/C [27] was 83.6% and the viability, T/C [28] was 93.3%. The viability, T/C [29] was 82% and the viability, T/C [30] was 41.4%.

`CCN(c1cc(-c2ccc(CN3CCOCC3)cc2)cc(C(=O)NCc2c(C)cc(C)[nH]c2=O)c1C)C1CCOCC1` + Cc1ccccc1N=Nc1ccc(NC(=O)c2ccnn2C)c(C)c1 gave an IC50 (second compound 0.1 µM) greater than 3 µM, an IC50 (second compound 0.316 µM) greater than 3 µM and an IC50 (second compound 1 µM) greater than 3 µM. The IC50 (second compound 3.16 µM) was greater than 3 µM, the IC50 (second compound 10 µM) was greater than 3 µM and the viability, T/C [31] was 105%. The viability, T/C [32] was 93.4%, the viability, T/C [33] was 93.2% and the viability, T/C [34] was 91.2%. It also gave a viability, T/C [35] of 91.1%, a viability, T/C [36] of 87.5% and a viability, T/C [37] of 93.7%. For the same compound, the viability, T/C [38] was 93.2%, the viability, T/C [39] was 92.6% and the viability, T/C [40] was 97.3%. The viability, T/C [41] was 87%, the viability, T/C [42] was 85.3% and the viability, T/C [43] was 105%. It also gave a viability, T/C [44] of 98.8%, a viability, T/C [45] of 95.6% and a viability, T/C [46] of 96.3%. For the same compound, the viability, T/C [47] was 92.8%, the viability, T/C [48] was 85.3% and the viability, T/C [49] was 91.3%. It also gave a viability, T/C [50] of 90.2%, a viability, T/C [51] of 84.3% and a viability, T/C [52] of 87.1%. It also gave a viability, T/C [53] of 83.6%, a viability, T/C [54] of 82.3% and a viability, T/C [55] of 84.2%. The viability, T/C [56] was 76.8%, the viability, T/C [57] was 79.8% and the viability, T/C [58] was 77.8%. It also gave a viability, T/C [59] of 71.3% and a viability, T/C [60] of 72.4%.

Work on `Nc1ncn(C2CC(O)C(CO)S2)c(=O)n1` (stereo not given) + Cc1ccccc1N=Nc1ccc(NC(=O)c2ccnn2C)c(C)c1 yielded an IC50 (second compound 0.1 µM) greater than 0.3 µM, an IC50 (second compound 0.316 µM) greater than 0.3 µM and an IC50 (second compound 1 µM) greater than 0.3 µM. It also gave an IC50 (second compound 3.16 µM) greater than 0.3 µM, an IC50 (second compound 10 µM) greater than 0.3 µM and a viability, T/C (second compound 0.1 µM, first compound 0.000949 µM) of 99.8%. For the same compound, the viability, T/C (second compound 0.1 µM, first compound 0.003 µM) was 94.9%, the viability, T/C [31] was 98% and the viability, T/C [32] was 95.9%. The viability, T/C [33] was 97%, the viability, T/C [34] was 93.8% and the viability, T/C (second compound 0.316 µM, first compound 0.000949 µM) was 104%. For the same compound, the viability, T/C (second compound 0.316 µM, first compound 0.003 µM) was 97.7%, the viability, T/C [37] was 97.7% and the viability, T/C [38] was 99.8%. The viability, T/C [39] was 95.4%, the viability, T/C [40] was 101% and the viability, T/C (second compound 1 µM, first compound 0.000949 µM) was 100%. The viability, T/C (second compound 1 µM, first compound 0.003 µM) was 100%, the viability, T/C [43] was 92.5% and the viability, T/C [44] was 98.2%. The viability, T/C [45] was 98%, the viability, T/C [46] was 92.6% and the viability, T/C (second compound 3.16 µM, first compound 0.000949 µM) was 98.9%. It also gave a viability, T/C (second compound 3.16 µM, first compound 0.003 µM) of 87.2%, a viability, T/C [49] of 90.2% and a viability, T/C [50] of 86.3%. It also gave a viability, T/C [51] of 93.7%, a viability, T/C [52] of 84.5% and a viability, T/C (second compound 10 µM, first compound 0.000949 µM) of 87.6%. It also gave a viability, T/C (second compound 10 µM, first compound 0.003 µM) of 80.8%, a viability, T/C [55] of 82% and a viability, T/C [56] of 90.3%. For the same compound, the viability, T/C [57] was 91.4% and the viability, T/C [58] was 78%.

With `O=C(C=Cn1cnc(-c2cc(C(F)(F)F)cc(C(F)(F)F)c2)n1)NNc1cnccn1` + Cc1ccccc1N=Nc1ccc(NC(=O)c2ccnn2C)c(C)c1 the IC50 (second compound 0.1 µM) was greater than 3 µM, the IC50 (second compound 0.316 µM) was greater than 3 µM and the IC50 (second compound 1 µM) was greater than 3 µM. It also gave an IC50 (second compound 3.16 µM) of 0.706 µM, an IC50 (second compound 10 µM) of 0.726 µM and a viability, T/C [31] of 108%. The viability, T/C [32] was 113%, the viability, T/C [33] was 143% and the viability, T/C [34] was 93.1%. For the same compound, the viability, T/C [35] was 53.9%, the viability, T/C [36] was 50.1% and the viability, T/C [37] was 109%. It also gave a viability, T/C [38] of 118%, a viability, T/C [39] of 151% and a viability, T/C [40] of 83.7%. For the same compound, the viability, T/C [41] was 57.6%, the viability, T/C [42] was 48% and the viability, T/C [43] was 109%. It also gave a viability, T/C [44] of 136%, a viability, T/C [45] of 179% and a viability, T/C [46] of 78.5%. The viability, T/C [47] was 54.2%, the viability, T/C [48] was 48% and the viability, T/C [49] was 111%. It also gave a viability, T/C [50] of 107%, a viability, T/C [51] of 154% and a viability, T/C [52] of 69.8%. It also gave a viability, T/C [53] of 48.5%, a viability, T/C [54] of 37.8% and a viability, T/C [55] of 85.8%. For the same compound, the viability, T/C [56] was 101%, the viability, T/C [57] was 112% and the viability, T/C [58] was 58.2%. The viability, T/C [59] was 49.8% and the viability, T/C [60] was 45.4%.
